Measured values taken from ChEMBL document CHEMBL3886557, “Compounds as inhibitors of diacylglycerol O-acyltransferase type 1 enzyme” (2016).

biological target: T1, Diacylglycerol O-acyltransferase 1 (Homo sapiens, UniProt O75907); type: tissue-based, Liver
T1 sequence (O75907 whole entry): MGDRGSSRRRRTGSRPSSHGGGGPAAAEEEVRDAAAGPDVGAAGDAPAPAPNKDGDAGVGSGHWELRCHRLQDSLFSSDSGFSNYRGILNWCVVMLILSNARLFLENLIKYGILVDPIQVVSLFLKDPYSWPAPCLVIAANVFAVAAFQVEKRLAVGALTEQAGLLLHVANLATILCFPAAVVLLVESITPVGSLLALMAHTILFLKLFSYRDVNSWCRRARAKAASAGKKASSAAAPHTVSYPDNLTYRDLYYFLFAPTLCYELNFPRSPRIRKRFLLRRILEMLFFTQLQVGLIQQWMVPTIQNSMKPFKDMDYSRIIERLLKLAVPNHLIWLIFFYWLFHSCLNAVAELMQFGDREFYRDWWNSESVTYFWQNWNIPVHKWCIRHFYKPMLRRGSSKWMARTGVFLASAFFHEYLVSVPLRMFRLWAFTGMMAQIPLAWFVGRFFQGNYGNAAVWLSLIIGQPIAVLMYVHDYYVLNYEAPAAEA

Compound | IC50 [nM]
O=C(O)C[C@H]1CC[C@H](c2ccc(-c3cn4cc(C(=O)NCc5ccc(F)c(Cl)c5)nc4s3)cc2)CC1 | < 10
O=C(O)C[C@H]1CC[C@H](c2ccc(-c3cn4cc(C(=O)Nc5cccc(Cl)c5)nc4s3)cc2)CC1 | < 10
O=C(O)CC1CCC(c2ccc(-c3ccc4nc(C(=O)NCc5c(F)cccc5F)cn4c3)cc2)CC1 (stereo unspecified) | < 25
O=C(O)C[C@H]1CC[C@H](c2ccc(-c3cn4cc(C(=O)NCc5c(Cl)cccc5Cl)nc4s3)cc2)CC1 | < 10
O=C(O)CC1CCC(c2ccc(-c3ccc4nc(C(=O)NCc5c(F)cccc5Cl)cn4c3)cc2)CC1 (stereo unspecified) | < 10
O=C(O)CC1CCC(c2ccc(-c3ccc4nc(C(=O)NCc5c(Cl)cccc5C(F)(F)F)cn4c3)cc2)CC1 (stereo unspecified) | < 10
O=C(O)C[C@H]1CC[C@H](c2ccc(-c3cn4cc(C(=O)NCc5c(F)cccc5Cl)nc4s3)cc2)CC1 | < 10
O=C(O)CC1CCC(c2ccc(-c3ccc4nc(C(=O)NCc5c(Cl)cccc5Cl)cn4c3)cc2)CC1 (stereo unspecified) | < 10
O=C(O)C[C@H]1CC[C@H](c2ccc(-c3cn4cc(C(=O)NCc5c(F)cc(Cl)cc5F)nc4s3)cc2)CC1 | < 10
O=C(O)CC1CCC(c2ccc(-c3ccc4nc(C(=O)NC5(c6cc(F)ccc6F)CC5)cn4c3)cc2)CC1 (stereo unspecified) | < 10
O=C(O)C[C@H]1CC[C@H](c2ccc(-c3cn4cc(C(=O)NCc5ccc(OC(F)(F)F)c(Cl)c5)nc4s3)cc2)CC1 | < 225
O=C(O)C[C@H]1CC[C@H](c2ccc(-c3cn4cc(C(=O)NCc5c(F)cccc5F)nc4s3)cc2)CC1 | < 25
O=C(O)CC1CCC(c2ccc(-c3cn4cc(C(=O)Nc5ccc(F)c(Cl)c5)nc4s3)cc2)CC1 (stereo unspecified) | < 10

biological target: T2, Diacylglycerol O-acyltransferase 1 (Mus musculus, UniProt Q9Z2A7); assay: Inhibition Assay: Â Assay buffer [20 mM HEPES (pH 7.4), 100 mM MgCl2 and 0.04% bovine serum albumin (BSA)] containing 500 uM of enzyme substrate (didecanoyl glycerol) and 7.5 uM radiolabeled acyl-CoA substrate ([14C]decanoyl-CoA) was added to each well of a phospholipid-coated radiometric assay plate.; type: microsomes, Liver
T2 sequence (Q9Z2A7 whole entry): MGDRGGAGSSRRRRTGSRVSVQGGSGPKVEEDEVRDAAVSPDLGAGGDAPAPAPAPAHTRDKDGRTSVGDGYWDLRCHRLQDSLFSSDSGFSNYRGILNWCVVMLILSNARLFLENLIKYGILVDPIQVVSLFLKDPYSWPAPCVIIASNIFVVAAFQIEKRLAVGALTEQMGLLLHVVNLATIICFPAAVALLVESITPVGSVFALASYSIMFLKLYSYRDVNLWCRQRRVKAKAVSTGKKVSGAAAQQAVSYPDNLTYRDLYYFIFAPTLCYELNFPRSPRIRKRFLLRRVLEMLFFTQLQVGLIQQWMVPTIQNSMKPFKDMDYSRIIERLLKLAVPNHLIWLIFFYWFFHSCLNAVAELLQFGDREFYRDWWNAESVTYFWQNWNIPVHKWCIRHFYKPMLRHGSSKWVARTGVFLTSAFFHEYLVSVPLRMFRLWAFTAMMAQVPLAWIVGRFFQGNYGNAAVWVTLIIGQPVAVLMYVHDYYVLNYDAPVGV

Compound | IC50 [nM]
O=C(O)C[C@H]1CC[C@H](c2ccc(-c3cn4cc(C(=O)NCc5ccc(F)c(Cl)c5)nc4s3)cc2)CC1 | < 25
O=C(O)C[C@H]1CC[C@H](c2ccc(-c3cn4cc(C(=O)Nc5cccc(Cl)c5)nc4s3)cc2)CC1 | < 150
O=C(O)CC1CCC(c2ccc(-c3ccc4nc(C(=O)NCc5c(F)cccc5F)cn4c3)cc2)CC1 (stereo unspecified) | < 75
O=C(O)C[C@H]1CC[C@H](c2ccc(-c3cn4cc(C(=O)NCc5c(Cl)cccc5Cl)nc4s3)cc2)CC1 | < 10
O=C(O)CC1CCC(c2ccc(-c3ccc4nc(C(=O)NCc5c(F)cccc5Cl)cn4c3)cc2)CC1 (stereo unspecified) | < 50
O=C(O)CC1CCC(c2ccc(-c3ccc4nc(C(=O)NCc5c(Cl)cccc5C(F)(F)F)cn4c3)cc2)CC1 (stereo unspecified) | < 10
O=C(O)C[C@H]1CC[C@H](c2ccc(-c3cn4cc(C(=O)NCc5c(F)cccc5Cl)nc4s3)cc2)CC1 | < 25
O=C(O)CC1CCC(c2ccc(-c3ccc4nc(C(=O)NCc5c(Cl)cccc5Cl)cn4c3)cc2)CC1 (stereo unspecified) | < 50
O=C(O)C[C@H]1CC[C@H](c2ccc(-c3cn4cc(C(=O)NCc5c(F)cc(Cl)cc5F)nc4s3)cc2)CC1 | < 10
O=C(O)CC1CCC(c2ccc(-c3ccc4nc(C(=O)NC5(c6cc(F)ccc6F)CC5)cn4c3)cc2)CC1 (stereo unspecified) | < 10
O=C(O)C[C@H]1CC[C@H](c2ccc(-c3cn4cc(C(=O)NCc5ccc(OC(F)(F)F)c(Cl)c5)nc4s3)cc2)CC1 | < 200
O=C(O)C[C@H]1CC[C@H](c2ccc(-c3cn4cc(C(=O)NCc5c(F)cccc5F)nc4s3)cc2)CC1 | < 25
O=C(O)CC1CCC(c2ccc(-c3cn4cc(C(=O)Nc5ccc(F)c(Cl)c5)nc4s3)cc2)CC1 (stereo unspecified) | < 100
